Reference: PubChem BioAssay AID190 (DTP/NCI, 2004)
Values joined by “and” are separate entries in the source; they are usually repeats but may differ in a detail not shown here. Equal values may be shown once. Inconclusive results and toxic doses are left out. How the source made its calls: active means survival T/C of 150% or more; inactive means T/C below 125% in these data.

Tested on: AKR/Lw mice, AKR lymphoma ip, median survival T/C
Assay: NCI In Vivo Anticancer Drug Screen. Data for tumor model Lymphoma AKR (Transplanted) (intraperitoneal) in AKR/Lw mice
Conditions: endpoint: median survival time, higher = longer survival
Experimental: The antitumor activity of compounds was measured in mice bearing transplantable tumors. Survival or tumor size were measured and the results are expressed as the measurement made in the treated group (T) divided by the measurement made in the vehicle treated control group (C). The tumor model used in this assay is Lymphoma AKR (Transplanted) (intraperitoneal) in AKR/Lw mice

[1] = dose: 25.0 mg/kg/injection, schedule: Q04DX003 (ip), vehicle: saline
[2] = dose: 50.0 mg/kg/injection, schedule: Q04DX003 (ip), vehicle: saline
[3] = dose: 100.0 mg/kg/injection, schedule: Q01DX001 (ip), vehicle: saline
[4] = dose: 100.0 mg/kg/injection, schedule: Q04DX003 (ip), vehicle: saline
[5] = dose: 200.0 mg/kg/injection, schedule: Q01DX001 (ip), vehicle: saline

Measured: T/C

CS(=O)(=O)OCCCCOS(C)(=O)=O
inactive: dose: 0.5 mg/kg/injection, schedule: Q01DX009 (ip), vehicle: Klucel (hydroxypropylcellulose) (HPC) 100 % of control | dose: 0.75 mg/kg/injection, schedule: Q01DX009 (ip), vehicle: saline 112 % of control | dose: 1.0 mg/kg/injection, schedule: Q01DX009 (ip), vehicle: Klucel (hydroxypropylcellulose) (HPC) 120 % of control | dose: 1.5 mg/kg/injection, schedule: Q01DX009 (ip), vehicle: saline 116 % of control | dose: 2.0 mg/kg/injection, schedule: Q01DX009 (ip), vehicle: Klucel (hydroxypropylcellulose) (HPC) 120 % of control | dose: 2.5 mg/kg/injection, schedule: Q01DX009 (ip), vehicle: saline 112 % of control | dose: 3.0 mg/kg/injection, schedule: Q01DX009 (ip), vehicle: saline 108 % of control | dose: 3.75 mg/kg/injection, schedule: Q01DX009 (ip), vehicle: saline 100 % of control and 116 % of control | dose: 4.0 mg/kg/injection, schedule: Q01DX009 (ip), vehicle: Klucel (hydroxypropylcellulose) (HPC) 107 % of control | dose: 5.0 mg/kg/injection, schedule: Q01DX009 (ip), vehicle: Klucel (hydroxypropylcellulose) (HPC) 102 % of control | dose: 5.0 mg/kg/injection, schedule: Q01DX009 (ip), vehicle: saline 96 % of control | dose: 7.5 mg/kg/injection, schedule: Q01DX009 (ip), vehicle: saline 86 % of control and 89 % of control | dose: 8.0 mg/kg/injection, schedule: Q01DX009 (ip), vehicle: Klucel (hydroxypropylcellulose) (HPC) 100 % of control | dose: 8.0 mg/kg/injection, schedule: Q01DX009 (ip), vehicle: saline 115 % of control | dose: 10.0 mg/kg/injection, schedule: Q01DX009 (ip), vehicle: saline 104 % of control | dose: 10.0 mg/kg/injection, schedule: Q04DX003 (ip), vehicle: Klucel (hydroxypropylcellulose) (HPC) 104 % of control | dose: 12.5 mg/kg/injection, schedule: Q01DX001 (ip), vehicle: saline 102 % of control and 110 % of control (2×) | dose: 12.5 mg/kg/injection, schedule: Q01DX009 (ip), vehicle: Klucel (hydroxypropylcellulose) (HPC) 89 % of control | dose: 12.5 mg/kg/injection, schedule: Q01DX009 (ip), vehicle: saline 87 % of control | dose: 15.0 mg/kg/injection, schedule: Q01DX009 (ip), vehicle: saline 105 % of control | dose: 16.0 mg/kg/injection, schedule: Q01DX009 (ip), vehicle: saline 103 % of control | dose: 20.0 mg/kg/injection, schedule: Q01DX009 (ip), vehicle: saline 113 % of control | dose: 20.0 mg/kg/injection, schedule: Q04DX003 (ip), vehicle: Klucel (hydroxypropylcellulose) (HPC) 91 % of control | dose: 25.0 mg/kg/injection, schedule: Q01DX001 (ip), vehicle: saline 97 % of control and 100 % of control and 114 % of control | dose: 25.0 mg/kg/injection, schedule: Q01DX009 (ip), vehicle: Klucel (hydroxypropylcellulose) (HPC) 89 % of control | dose: 25.0 mg/kg/injection, schedule: Q01DX009 (ip), vehicle: saline 89 % of control | dose: 25.0 mg/kg/injection, schedule: Q04DX003 (ip), vehicle: other 108 % of control | [1] 101 % of control | dose: 30.0 mg/kg/injection, schedule: Q01DX009 (ip), vehicle: saline 104 % of control | dose: 37.5 mg/kg/injection, schedule: Q04DX003 (ip), vehicle: saline 90 % of control | dose: 40.0 mg/kg/injection, schedule: Q04DX003 (ip), vehicle: Klucel (hydroxypropylcellulose) (HPC) 100 % of control | dose: 50.0 mg/kg/injection, schedule: Q01DX009 (ip), vehicle: Klucel (hydroxypropylcellulose) (HPC) 89 % of control | dose: 50.0 mg/kg/injection, schedule: Q04DX003 (ip), vehicle: other 104 % of control | [2] 109 % of control | [3] 97 % of control and 105 % of control | dose: 100.0 mg/kg/injection, schedule: Q04DX003 (ip), vehicle: Klucel (hydroxypropylcellulose) (HPC) 100 % of control | dose: 100.0 mg/kg/injection, schedule: Q04DX003 (ip), vehicle: other 91 % of control | [4] 92 % of control | [5] 97 % of control | dose: 200.0 mg/kg/injection, schedule: Q04DX003 (ip), vehicle: Klucel (hydroxypropylcellulose) (HPC) 105 % of control | dose: 400.0 mg/kg/injection, schedule: Q04DX003 (ip), vehicle: Klucel (hydroxypropylcellulose) (HPC) 100 % of control | dose: 600.0 mg/kg/injection, schedule: Q01DX001 (ip), vehicle: Klucel (hydroxypropylcellulose) (HPC) 106 % of control

CC12CC3CC(C1)CC(C(=O)O)(C3)C2
inactive: [1] 97 % of control | [2] 102 % of control | [3] 100 % of control | [4] 100 % of control | [5] 101 % of control | dose: 400.0 mg/kg/injection, schedule: Q01DX001 (ip), vehicle: saline 108 % of control

CO[C@H](C(=O)[C@@H](O)[C@@H](C)O)[C@@H]1Cc2cc3cc(OC4CC(OC5CC(O)C(O)C(C)O5)C(O)C(C)O4)c(C)c(O)c3c(O)c2C(=O)[C@H]1OC1CC(OC2CC(OC3CC(C)(O)C(O)C(C)O3)C(O)C(C)O2)C(O)C(C)O1 (some centres undefined)
inactive: dose: 0.12 mg/kg/injection, schedule: Q01DX009 (ip), vehicle: saline 115 % of control | dose: 0.25 mg/kg/injection, schedule: Q01DX009 (ip), vehicle: water 95 % of control | dose: 0.5 mg/kg/injection, schedule: Q01DX009 (ip), vehicle: water 110 % of control

CC(C)n1c(=S)[nH]c2ccccc2c1=O
inactive: dose: 100.0 mg/kg/injection, schedule: Q01DX001 (ip), vehicle: Klucel (hydroxypropylcellulose) (HPC) 90 % of control | dose: 200.0 mg/kg/injection, schedule: Q01DX001 (ip), vehicle: Klucel (hydroxypropylcellulose) (HPC) 118 % of control | dose: 400.0 mg/kg/injection, schedule: Q01DX001 (ip), vehicle: Klucel (hydroxypropylcellulose) (HPC) 104 % of control
